Results on 26 compounds are retold here after US5670501A, “N-substituted 9-alkyladenines” (Discovery Therapeutics, Inc., priority 1994, dated 1997).

Experiment [1] has as its target T1, adenosine A1 receptor (Bos taurus, UniProt P28190).
T1 construct: were homogenized with a Brinkman polytron and the membranes were collected by centrifugation; from tissue; host or cells: bovine caudate membranes
T1 sequence (P28190 1-326): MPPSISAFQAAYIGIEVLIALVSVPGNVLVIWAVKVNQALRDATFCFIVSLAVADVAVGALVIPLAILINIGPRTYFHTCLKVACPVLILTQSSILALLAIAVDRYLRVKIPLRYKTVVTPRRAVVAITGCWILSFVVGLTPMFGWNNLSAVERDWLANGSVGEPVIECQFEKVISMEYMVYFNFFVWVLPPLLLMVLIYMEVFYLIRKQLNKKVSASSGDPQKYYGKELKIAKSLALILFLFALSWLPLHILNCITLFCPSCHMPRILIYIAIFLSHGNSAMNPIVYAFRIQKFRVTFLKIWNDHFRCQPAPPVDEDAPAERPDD
Put plainly: Receptor affinity (radioligand binding), A1, [3H]CHA. Particulars: for Ki: [3H]CHA, room temperature, 2 hours, tissues listed: bovine caudate, guinea pig cortex, guinea pig striatum (only Example 13 marked guinea pig); for Selectivity Ratio (A2 Ki /A1 Ki): radioligand binding. More on the design: species or system bovine. The procedure: (§1) 1. Receptor Affinity Experiments (Radioligand Binding)
(§2) Tissues (bovine caudate, guinea pig cortex, guinea pig striatum) were homogenized with a Brinkman polytron and the membranes were collected by centrifugation at 40,000×g at 4° C. for 10 min. The membranes were washed by resuspension and centrifugation, resuspended, and incubated in the presence of 1 U/ml adenosine deaminase for 15-30 min. at 37° C. The membranes were diluted, centrifuged once, and resuspended to a final concentration of 0.5-2 mg protein/ml. Adenosine deaminase (0.1 U/ml) was included in the final resuspension. Assays were initiated by addition of membranes. The compounds of the present invention were subjected to the following experimental conditions: A1 determinations/incubated with [^3 H]CHA at room temperature for 2 hours, A2 determinations/incubated with [^3 H]NECA at room temperature for 1 hour. Assays were terminated by filtration, and the filters were counted in scintillation counters.

A further experiment deals with adenosine A2 receptor. Put plainly: Receptor affinity (radioligand binding), A2, [3H]NECA. Also noted: species or system bovine / guinea pig. The settings on record: room temperature, 1 hour. The procedure:
as §1, §2

Experiment [2] concerns the target T2, adenosine A1 receptor (Cavia porcellus, UniProt P47745).
T2 construct: from tissue; host or cells: isolated guinea pig left atria
T2 sequence (P47745 1-326): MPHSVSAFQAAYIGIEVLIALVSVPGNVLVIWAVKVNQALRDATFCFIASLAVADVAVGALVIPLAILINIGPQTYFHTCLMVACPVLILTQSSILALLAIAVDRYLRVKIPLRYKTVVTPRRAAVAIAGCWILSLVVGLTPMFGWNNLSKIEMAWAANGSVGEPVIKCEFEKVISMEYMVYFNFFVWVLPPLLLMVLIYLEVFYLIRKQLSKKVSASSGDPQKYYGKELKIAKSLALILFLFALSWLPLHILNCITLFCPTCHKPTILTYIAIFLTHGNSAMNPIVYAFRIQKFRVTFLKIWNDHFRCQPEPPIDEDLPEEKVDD
Put plainly: A1 in vitro functional test: negative inotropic response, left atria, antagonism of NECA. It is filed as cell-based, guinea pig. The settings on record: for Selectivity Ratio (A2 KB /A1 KB): functional; for Kb: guinea pig left atria, electrically evoked twitch, NECA agonist, 31° C, Schild plot, read-out: A1 KB (antagonist dissociation constant). The procedure:
2. Adenosine--A1 /A2 In Vitro Functional Tests
(A1 Assay: Negative inotropic response)-Guinea pig left atria were placed in organ baths filled with Krebs Henseleit solution gassed with 95% O2 and 5% CO2 and maintained at a temperature of 31° C. An initial resting tension of 1 gm. was placed on each tissue, which was allowed to equilibrate. Atria were stimulated electrically to produce twitch responses. A dose-response curve for the inhibition of the electrically-evoked twitch response was obtained by cumulative addition of the adenosine agonist […]. After the washout of the tissue, a fixed concentration of test compound was added and the tissue allowed to equilibrate for 1 hr. before cumulative additions of the adenosine agonist 5'-N-ethylcarboxamidoadenosine (NECA) to generate a new dose response curve. This procedure was repeated with different fixed concentrations of test compounds to generate a family of dose response curves. Schild plots were constructed from the resultant concentration-effect curves, and KB (antagonist dissociation constant) values were obtained. The results (see Table VII) are expressed as KB values (concentration of test compound such that one-half of the tissue adenosine receptor population is occupied by the test compound).

Consider `Cn1c(C#N)nc2c(N[C@H]3C[C@H]4CC[C@@H]3C4)ncnc21` (relative stereo) [Example 1, (±)-N^6-(endo-2'-norbornyl)-8-cyano-9-methyladenine], for which, on adenosine A1 receptor [1], the Ki (in general, the dissociation constant of the complex between target and ligand, obtained from inhibition or displacement) is 0.00389 µM; the “Selectivity Ratio (A2 Ki /A1 Ki)” value was found to be 362. Besides, the Ki on adenosine A2 receptor amounted to 1.41 µM. Further, at adenosine A1 receptor [2], the “Selectivity Ratio (A2 KB /A1 KB)” value came to 46 and the Kb (usually the affinity of an antagonist, worked out from how it opposes an agonist) came out at 0.081 µM.
In the case of `Cn1c(C(N)=O)nc2c(N[C@H]3C[C@H]4CC[C@@H]3C4)ncnc21` (relative stereo) [Example 2, (±)-N^6-(endo-2'-norbornyl)-8-amido-9-methyladenine], at adenosine A1 receptor [1], the affinity, expressed as Ki, was 0.0129 µM and the “Selectivity Ratio (A2 Ki /A1 Ki)” value stood at 275. The Ki at adenosine A2 receptor came to 3.55 µM. For the same compound, at adenosine A1 receptor [2], the “Selectivity Ratio (A2 KB /A1 KB)” value is > 390 and the Kb was 0.257 µM.
Turning to `CSc1nc2c(N[C@H]3C[C@H]4CC[C@@H]3C4)ncnc2n1C` (relative stereo) [Example 3, (±)-N^6-[endo-2'-norbornyl]-8-methylthio-9-methyladenine], on adenosine A1 receptor [1], the Ki stood at 0.00603 µM and the “Selectivity Ratio (A2 Ki /A1 Ki)” value came to 66. Moreover, on adenosine A2 receptor, the Ki is 0.398 µM. Moreover, at adenosine A1 receptor [2], the “Selectivity Ratio (A2 KB /A1 KB)” value is on record as > 1540 and the antagonist dissociation constant (Kb) came out at 0.065 µM.
With `COc1nc2c(N[C@H]3C[C@H]4CC[C@@H]3C4)ncnc2n1C` (relative stereo) [Example 4, (±)-N^6-(endo-2'-norbornyl)-8-methoxy-9-methyladenine], on adenosine A1 receptor [1], the Ki stood at 0.012 µM and the “Selectivity Ratio (A2 Ki /A1 Ki)” value was 43. Also, the Ki on adenosine A2 receptor came to 0.513 µM. In addition, at adenosine A1 receptor [2], the “Selectivity Ratio (A2 KB /A1 KB)” value is given as 250 and the Kb came out at 0.105 µM.
Regarding `CN(C)c1nc2c(N[C@H]3C[C@H]4CC[C@@H]3C4)ncnc2n1C` (relative stereo) [Example 5, (+)-N^6-(endo-2'-norbornyl)-8-dimethylamino-9-methyladenine], on adenosine A1 receptor [1], the inhibition constant Ki worked out at 0.00371 µM and the “Selectivity Ratio (A2 Ki /A1 Ki)” value is recorded as 166. The compound further came in with a Ki at adenosine A2 receptor of 0.617 µM. Moreover, at adenosine A1 receptor [2], the “Selectivity Ratio (A2 KB /A1 KB)” value is given as 362 and the Kb stood at 0.11 µM.
For `Cn1c(N2CCOCC2)nc2c(N[C@H]3C[C@H]4CC[C@@H]3C4)ncnc21` (relative stereo) [Example 6], the inhibition constant (Ki) at adenosine A1 receptor [1] is 0.024 µM; at adenosine A2 receptor it was > 10 µM. Moreover, at adenosine A1 receptor [1], the “Selectivity Ratio (A2 Ki /A1 Ki)” value was > 417.
The matching figures for `Cn1c(N2CCCC2)nc2c(N[C@H]3C[C@H]4CC[C@@H]3C4)ncnc21` (relative stereo) [Example 7]: 0.019 µM, > 10 µM and > 526.
The matching figures for `Cn1c(N2CCSCC2)nc2c(N[C@H]3C[C@H]4CC[C@@H]3C4)ncnc21` (relative stereo) [Example 9]: 0.00794 µM, 10 µM and 1,259.
Regarding `CCN(CC)c1nc2c(N[C@H]3C[C@H]4CC[C@@H]3C4)ncnc2n1C` (relative stereo) [Example 10, (±)-N^6-(endo-2'-norbornyl)-8-diethylamino-9-methyladenine], on adenosine A1 receptor [1], the affinity corresponds to a Ki of 0.001 µM and the “Selectivity Ratio (A2 Ki /A1 Ki)” value was found to be 331. Further, the Ki at adenosine A2 receptor came to 0.331 µM. Also, the Kb at adenosine A1 receptor [2] was found to be 0.117 µM.
Regarding `CCCCN(C)c1nc2c(N[C@H]3C[C@H]4CC[C@@H]3C4)ncnc2n1C` (relative stereo) [Example 11], on adenosine A1 receptor [1], the affinity corresponds to a Ki of 0.0458 µM and the “Selectivity Ratio (A2 Ki /A1 Ki)” value stood at 240. Moreover, on adenosine A2 receptor, the Ki came out at 11 µM.
Taken in the same sequence, the figures for `Cn1c(N2CCOCC2)nc2c(N[C@H]3C[C@@H]4C[C@H]3C[C@@H]4O)ncnc21` (relative stereo) [Example 25] were 0.019 µM, > 526 and > 10 µM.
As to `CC(C)Nc1nc2c(N[C@@H]3C[C@H]4C[C@@H]3C[C@H]4O)ncnc2n1C` (relative stereo) [Example 26], on adenosine A1 receptor [1], the Ki worked out at 0.00955 µM and the “Selectivity Ratio (A2 Ki /A1 Ki)” value amounted to 602. Moreover, affinity at adenosine A2 receptor was put at a Ki of 5.75 µM.
`Cn1c(Br)nc2c(N[C@@H]3C[C@H]4C[C@@H]3C[C@@H]4O)ncnc21` (relative stereo) [Example 27]: on adenosine A1 receptor [1], the Ki came to 0.00501 µM and the “Selectivity Ratio (A2 Ki /A1 Ki)” value is reported as 132. Also, the Ki at adenosine A2 receptor turned out to be 0.661 µM.
In the case of `CN(C)c1nc2c(N[C@@H]3C[C@@H]4CC(=O)[C@H]3C4)ncnc2n1C` (relative stereo) [Example 28], the inhibition constant Ki on adenosine A1 receptor [1] worked out at 0.00831 µM; on adenosine A2 receptor, 4.57 µM. Besides, on adenosine A1 receptor [1], the “Selectivity Ratio (A2 Ki /A1 Ki)” value was 550.
For the compound `Cn1cnc2c(N[C@@H]3C[C@H]4C[C@@H]3CC4=O)ncnc21` (relative stereo) [Example 29, (±)-N^6-[endo-2'-aminonorbornan-5-one]-9-methyladenine], on adenosine A1 receptor [1], the inhibition constant Ki was found to be 0.501 µM and the “Selectivity Ratio (A2 Ki /A1 Ki)” value was > 20. The Ki at adenosine A2 receptor is > 10 µM.
Turning to `Cn1cnc2c(N[C@H]3C[C@H]4C[C@@H]3CC4=O)ncnc21` (relative stereo) [Example 33], the inhibition constant Ki was 0.0427 µM on adenosine A1 receptor [1] and 11.5 µM at adenosine A2 receptor. The “Selectivity Ratio (A2 Ki /A1 Ki)” value on adenosine A1 receptor [1] is 269.
For the compound `Cn1cnc2c(N[C@H]3C[C@@H]4CC(=O)[C@H]3C4)ncnc21` (relative stereo) [Example 34], the figures for the Ki at adenosine A1 receptor [1] and at adenosine A2 receptor were 0.0692 µM and 15.1 µM, respectively. Also, the “Selectivity Ratio (A2 Ki /A1 Ki)” value at adenosine A1 receptor [1] came out at 218.
As to `Cn1cnc2c(N[C@H]3C[C@H]4C[C@@H]3[C@H](O)C4)ncnc21` (relative stereo) [Example 35], at adenosine A1 receptor [1], the Ki worked out at 0.295 µM and the “Selectivity Ratio (A2 Ki /A1 Ki)” value worked out at 120. Besides, on adenosine A2 receptor, the affinity, expressed as Ki, was 35.5 µM.
Regarding `Cn1cnc2c(N[C@H]3C[C@H]4C[C@@H]3c3ccc(O)cc34)ncnc21` (relative stereo) [Example 37, (±)-N^6-(exo-2'-amino-6'-hydroxybenzonorbornyl)-9-methyladenine], the Ki at adenosine A1 receptor [1] was found to be 0.0115 µM; at adenosine A2 receptor, 4.57 µM. The “Selectivity Ratio (A2 Ki /A1 Ki)” value on adenosine A1 receptor [1] is reported as 397.
For `CCCn1cnc2c(N[C@@H]3C[C@H]4C[C@@H]3C[C@H]4O)ncnc21` (relative stereo) [Example 42], on adenosine A1 receptor [1], affinity was put at a Ki of 0.0288 µM and the “Selectivity Ratio (A2 Ki /A1 Ki)” value turned out to be 224. At adenosine A2 receptor, this compound displayed a Ki of 6.46 µM.
Take `CCCn1cnc2c(N[C@@H]3C[C@H]4C[C@@H]3C[C@@H]4O)ncnc21` (relative stereo) [Example 43]: on adenosine A1 receptor [1], the Ki stood at 0.257 µM and the “Selectivity Ratio (A2 Ki /A1 Ki)” value is > 39. Further, the Ki at adenosine A2 receptor is > 10 µM.
For `CC(C)n1cnc2c(N[C@@H]3C[C@H]4C[C@@H]3CC4=O)ncnc21` (relative stereo) [Example 44], the results for the Ki at adenosine A1 receptor [1] and on adenosine A2 receptor were 0.251 µM and 21.4 µM, respectively. Also, at adenosine A1 receptor [1], the “Selectivity Ratio (A2 Ki /A1 Ki)” value is reported as 85.
As for `CC(C)n1cnc2c(N[C@@H]3C[C@H]4C[C@@H]3C[C@H]4O)ncnc21` (relative stereo) [Example 45], on adenosine A1 receptor [1], the affinity, expressed as Ki, was 0.295 µM and the “Selectivity Ratio (A2 Ki /A1 Ki)” value is reported as > 34. In addition, the Ki at adenosine A2 receptor was > 10 µM.
On to `CC(C)n1cnc2c(N[C@@H]3C[C@H]4C[C@@H]3C[C@@H]4O)ncnc21` (relative stereo) [Example 46], for which, on adenosine A1 receptor [1], the Ki worked out at 0.295 µM and the “Selectivity Ratio (A2 Ki /A1 Ki)” value is reported as > 34. At adenosine A2 receptor, the Ki is > 10 µM.
The matching figures for `CCN(CC)c1nc2c(NC3CCCC3)ncnc2n1C` [Example 14]: 0.00372 µM, 117 and 0.436 µM.
As to `Cn1c(N2CCOCC2)nc2c(NC3CCCC3)ncnc21` [Example 15], on adenosine A1 receptor [1], the Ki was determined as 0.042 µM and the “Selectivity Ratio (A2 Ki /A1 Ki)” value is on record as > 238. Besides, on adenosine A2 receptor, the Ki was > 10 µM.
